Our source for the IC50 values is ChEMBL document CHEMBL3217583, “The MEP pathway and the development of inhibitors as potential anti-infective agents” (Medchemcomm, 2012).

Assay [1] is described as follows: Inhibition of recombinant Plasmodium falciparum IspF measured for 30 mins by photometric plate reader analysis.
The target of assay [2] is 2-C-methyl-D-erythritol 2,4-cyclodiphosphate synthase (Mycobacterium tuberculosis (strain ATCC 25618 / H37Rv), UniProt P9WKG5). As to the kind of experiment: Inhibition of Mycobacterium tuberculosis H37Rv IspF expressed in Escherichia coli XL1-Blue measured for 30 mins by photometric plate reader analysis.
Chain of 2-C-methyl-D-erythritol 2,4-cyclodiphosphate synthase (P9WKG5 whole entry): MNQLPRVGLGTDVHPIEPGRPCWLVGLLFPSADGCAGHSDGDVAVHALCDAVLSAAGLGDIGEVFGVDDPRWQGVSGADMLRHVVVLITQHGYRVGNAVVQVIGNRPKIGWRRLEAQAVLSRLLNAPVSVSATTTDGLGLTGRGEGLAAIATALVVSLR
The nature of assay [3]: Inhibition of Escherichia coli IspC.
Assay [4] in a line: Inhibition of recombinant Pseudomonas aeruginosa DXS expressed in Escherichia coli by spectrophotometric analysis.
Assay [5] in a line: Inhibition of Escherichia coli DXS.
Assay [6] is described as follows: Inhibition of Aquifex aeolicus IspH expressed in Escherichia coli BL21(DE3).
Assay [7] can be described thus: Inhibition of Escherichia coli IspF.
Assay [8] can be described thus: Inhibition of Chlamydomonas DXS.
Assay [9] can be described thus: Inhibition of Aquifex aeolicus IspH expressed in Escherichia coli BL21(DE3) using HMBPP as substrate preincubated for 10 mins followed by substrate addition.
Assay [10] can be described thus: Inhibition of Escherichia coli IspE by CDP-ME-coupled photometric analysis.
The nature of assay [11]: Inhibition of IspD (unknown origin).
A short description of assay [12]: Inhibition of Escherichia coli IspE.
Assay [13] can be described thus: Competitive inhibition of Escherichia coli IspG expressed in Escherichia coli BL21(DE3) using MEcPP as substrate preincubated for 10 mins followed by substrate addition by Michaelis-Menten equation analysis.
Assay [14] has as its target T1, 2-C-methyl-D-erythritol 4-phosphate cytidylyltransferase, chloroplastic (Arabidopsis thaliana, UniProt P69834).
T1 sequence (P69834 whole entry): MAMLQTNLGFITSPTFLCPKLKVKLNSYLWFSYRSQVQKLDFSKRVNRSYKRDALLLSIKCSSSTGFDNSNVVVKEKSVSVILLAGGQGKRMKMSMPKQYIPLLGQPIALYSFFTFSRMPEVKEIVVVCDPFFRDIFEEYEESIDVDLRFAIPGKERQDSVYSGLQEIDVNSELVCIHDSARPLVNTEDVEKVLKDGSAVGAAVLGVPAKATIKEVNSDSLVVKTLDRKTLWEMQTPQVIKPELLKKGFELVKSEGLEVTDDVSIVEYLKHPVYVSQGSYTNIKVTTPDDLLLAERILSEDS
As to the kind of experiment: Inhibition of Arabidopsis thaliana IspD.

Assay [15] can be described thus: Inhibition of Escherichia coli IspF by fluorescence titration assay.

By IC50 is commonly meant the concentration at which inhibition is half-maximal.

For the compound `CCOC(=O)C1=C(C)N=c2s/c(=C\c3cc(Br)c(O)c(Br)c3)c(=O)n2C1c1cccs1` (stereo unspecified), the IC50 in assay [1] is 9.6 µM; in [2], 6.1 µM.
The compound `O=CN(O)CCCP(=O)(O)O` [FOSMIDOMYCIN] showed a half-maximal inhibitory concentration (IC50) in [3] of 0.035 µM.
Regarding `O=C(O)C(=O)CF`, the IC50 in assay [4] is 400 µM; in [5] it was 80 µM.
Compound `O=P(O)(O)OP(=O)(O)OCCc1cccnc1` [PYRIDIN-3-YL-ETHYL-DIPHOSPHATE] returned a concentration for half-maximal inhibition (IC50) in [6] of 9.1 µM.
As for `Nc1ccn(Cc2ccc(CNC(=O)c3ccccc3)c3ccccc23)c(=O)n1`, it took 450 µM to reach half-maximal inhibition in [7] (IC50).
Consider `CC1(C)C(=O)ON(Cc2ccccc2Cl)C1=O` [KETOCLOMAZONE], for which, in assay [8], the half-maximal inhibitory concentration (IC50) was determined as 100 µM.
As for `CC(=O)N(O)CCCP(=O)(O)O`, half-maximal inhibition in [3] (IC50) required 0.05 µM.
Take `C#CCCOP(=O)(O)OP(=O)(O)O` [BUT-3-YNYL DIPHOSPHATE]: half-maximal inhibition in assay [9] (IC50) required 0.45 µM.
In the case of `Nc1ccn([C@@H]2O[C@H](CNC(=O)CCc3nc4ccccc4[nH]3)[C@@H](O)[C@H]2O)c(=O)n1`, in [10], the 50% inhibitory concentration (IC50) amounted to 1670 µM.
Regarding `O=P(O)(O)OC[C@@H](O)[C@@H](O)CO`, inhibition in assay [11] was half-maximal at 1360 µM (IC50).
Take `CCS(=O)(=O)NCC#Cc1cn(C2CCCS2)c(=O)nc1N` (stereo unspecified): the IC50 in assay [12] was 6 µM.
Take `C#CCOP(=O)(O)OP(=O)(O)O` [PROP-2-YNYL DIPHOSPHATE]: the half-maximal inhibitory concentration (IC50) in assay [13] was 0.75 µM.
`Oc1c(Cc2ccccc2)c(Cl)nc2ncnn12`: in assay [14], the IC50 turned out to be 0.14 µM.
In assay [15], `CN(C)c1cccc2c(S(=O)(=O)NCCOP(=O)(O)OP(=O)(O)OC[C@H]3O[C@@H](n4ccc(N)nc4=O)[C@H](O)[C@@H]3O)cccc12` came in with an IC50 of 3000 µM.
